Experimental data from the NIST ThermoML archive (doi:10.1016/j.jct.2006.05.008).
Several values for one entry are separate records, joined by “and”; a condition that tells them apart may be missing. Equal entries are not always repeated.

Assay: molar heat capacity at constant pressure
Settings: 101.33 kPa

CCC[n+]1ccn(C)c1.[Br-] [1-methyl-3-propylimidazolium bromide]
Settings	molar heat capacity at constant pressure
146.32 K, Glass, Small (less than 1 g) adiabatic calorimetry	140.69 J/K/mol
146.55 K, Crystal, Vacuum adiabatic calorimetry	133.11 J/K/mol
146.9 K, Crystal, Vacuum adiabatic calorimetry	133.3 J/K/mol
147.92 K, Crystal, Vacuum adiabatic calorimetry	133.83 J/K/mol
148.32 K, Metastable crystal, Small (less than 1 g) adiabatic calorimetry	137.4 J/K/mol
148.96 K, Crystal, Vacuum adiabatic calorimetry	134.32 J/K/mol
149.12 K, Glass, Small (less than 1 g) adiabatic calorimetry	142.33 J/K/mol
149.3 K, Crystal, Vacuum adiabatic calorimetry	134.52 J/K/mol
150.68 K, Crystal, Vacuum adiabatic calorimetry	135.21 J/K/mol
150.83 K, Metastable crystal, Small (less than 1 g) adiabatic calorimetry	138.65 J/K/mol
151.02 K, Crystal, Vacuum adiabatic calorimetry	135.37 J/K/mol
151.92 K, Glass, Small (less than 1 g) adiabatic calorimetry	143.94 J/K/mol
152.06 K, Crystal, Vacuum adiabatic calorimetry	135.89 J/K/mol
153.09 K, Crystal, Vacuum adiabatic calorimetry	136.42 J/K/mol
153.33 K, Metastable crystal, Small (less than 1 g) adiabatic calorimetry	139.92 J/K/mol
153.43 K, Crystal, Vacuum adiabatic calorimetry	136.63 J/K/mol
153.5 K, Glass, Small (less than 1 g) adiabatic calorimetry	144.83 J/K/mol
154.73 K, Glass, Small (less than 1 g) adiabatic calorimetry	145.57 J/K/mol
154.81 K, Crystal, Vacuum adiabatic calorimetry	137.37 J/K/mol
155.15 K, Crystal, Vacuum adiabatic calorimetry	137.48 J/K/mol
155.84 K, Metastable crystal, Small (less than 1 g) adiabatic calorimetry	141.25 J/K/mol
155.92 K, Glass, Small (less than 1 g) adiabatic calorimetry	146.2 J/K/mol
156.19 K, Crystal, Vacuum adiabatic calorimetry	138.07 J/K/mol
157.22 K, Crystal, Vacuum adiabatic calorimetry	138.55 J/K/mol
157.53 K, Glass, Small (less than 1 g) adiabatic calorimetry	147.21 J/K/mol
157.57 K, Crystal, Vacuum adiabatic calorimetry	138.81 J/K/mol
158.35 K, Metastable crystal, Small (less than 1 g) adiabatic calorimetry	142.5 J/K/mol
158.39 K, Glass, Small (less than 1 g) adiabatic calorimetry	147.68 J/K/mol
158.74 K, Metastable crystal, Small (less than 1 g) adiabatic calorimetry	142.49 J/K/mol
158.95 K, Crystal, Vacuum adiabatic calorimetry	139.5 J/K/mol
159.29 K, Crystal, Vacuum adiabatic calorimetry	139.64 J/K/mol
160.32 K, Crystal, Vacuum adiabatic calorimetry	140.24 J/K/mol
160.34 K, Glass, Small (less than 1 g) adiabatic calorimetry	148.83 J/K/mol
160.85 K, Glass, Small (less than 1 g) adiabatic calorimetry	149.02 J/K/mol
160.86 K, Metastable crystal, Small (less than 1 g) adiabatic calorimetry	143.76 J/K/mol
161.31 K, Metastable crystal, Small (less than 1 g) adiabatic calorimetry	143.83 J/K/mol
161.35 K, Crystal, Vacuum adiabatic calorimetry	140.75 J/K/mol
161.7 K, Crystal, Vacuum adiabatic calorimetry	141.04 J/K/mol
163.07 K, Crystal, Vacuum adiabatic calorimetry	141.95 J/K/mol
163.14 K, Glass, Small (less than 1 g) adiabatic calorimetry	150.42 J/K/mol
163.31 K, Glass, Small (less than 1 g) adiabatic calorimetry	150.41 J/K/mol
163.36 K, Metastable crystal, Small (less than 1 g) adiabatic calorimetry	145.06 J/K/mol
163.42 K, Crystal, Vacuum adiabatic calorimetry	142.16 J/K/mol
163.82 K, Metastable crystal, Small (less than 1 g) adiabatic calorimetry	145.08 J/K/mol
164.45 K, Crystal, Vacuum adiabatic calorimetry	143.11 J/K/mol
165.48 K, Crystal, Vacuum adiabatic calorimetry	144.27 J/K/mol
165.77 K, Glass, Small (less than 1 g) adiabatic calorimetry	151.85 J/K/mol
165.82 K, Crystal, Vacuum adiabatic calorimetry	145.11 J/K/mol
165.87 K, Metastable crystal, Small (less than 1 g) adiabatic calorimetry	146.32 J/K/mol
165.96 K, Glass, Small (less than 1 g) adiabatic calorimetry	152.04 J/K/mol
166.33 K, Metastable crystal, Small (less than 1 g) adiabatic calorimetry	146.42 J/K/mol
167.19 K, Crystal, Vacuum adiabatic calorimetry	146.62 J/K/mol
167.53 K, Crystal, Vacuum adiabatic calorimetry	147.09 J/K/mol
168.23 K, Glass, Small (less than 1 g) adiabatic calorimetry	153.27 J/K/mol
168.38 K, Metastable crystal, Small (less than 1 g) adiabatic calorimetry	147.66 J/K/mol
168.56 K, Crystal, Vacuum adiabatic calorimetry	147.58 J/K/mol
168.77 K, Glass, Small (less than 1 g) adiabatic calorimetry	153.64 J/K/mol
168.85 K, Metastable crystal, Small (less than 1 g) adiabatic calorimetry	147.67 J/K/mol
169.59 K, Crystal, Vacuum adiabatic calorimetry	148.31 J/K/mol
169.93 K, Crystal, Vacuum adiabatic calorimetry	148.36 J/K/mol
170.69 K, Glass, Small (less than 1 g) adiabatic calorimetry	154.76 J/K/mol
170.88 K, Metastable crystal, Small (less than 1 g) adiabatic calorimetry	149.09 J/K/mol
171.3 K, Crystal, Vacuum adiabatic calorimetry	149.09 J/K/mol
171.36 K, Metastable crystal, Small (less than 1 g) adiabatic calorimetry	149.04 J/K/mol
171.57 K, Glass, Small (less than 1 g) adiabatic calorimetry	155.3 J/K/mol
171.66 K, Crystal, Vacuum adiabatic calorimetry	149.38 J/K/mol
172.67 K, Crystal, Vacuum adiabatic calorimetry	149.83 J/K/mol
173.15 K, Glass, Small (less than 1 g) adiabatic calorimetry	156.22 J/K/mol
173.73 K, Crystal, Vacuum adiabatic calorimetry	150.42 J/K/mol
173.86 K, Metastable crystal, Small (less than 1 g) adiabatic calorimetry	151.16 J/K/mol
174.05 K, Crystal, Vacuum adiabatic calorimetry	150.49 J/K/mol
174.37 K, Glass, Small (less than 1 g) adiabatic calorimetry	156.97 J/K/mol
175.42 K, Crystal, Vacuum adiabatic calorimetry	151.1 J/K/mol
175.61 K, Glass, Small (less than 1 g) adiabatic calorimetry	157.68 J/K/mol
175.8 K, Crystal, Vacuum adiabatic calorimetry	151.34 J/K/mol
176.31 K, Metastable crystal, Small (less than 1 g) adiabatic calorimetry	156.29 J/K/mol
176.79 K, Crystal, Vacuum adiabatic calorimetry	151.84 J/K/mol
177.16 K, Glass, Small (less than 1 g) adiabatic calorimetry	158.66 J/K/mol
177.87 K, Crystal, Vacuum adiabatic calorimetry	152.35 J/K/mol
178.06 K, Glass, Small (less than 1 g) adiabatic calorimetry	159.2 J/K/mol
178.16 K, Crystal, Vacuum adiabatic calorimetry	152.6 J/K/mol
178.77 K, Metastable crystal, Small (less than 1 g) adiabatic calorimetry	157.34 J/K/mol
179.54 K, Crystal, Vacuum adiabatic calorimetry	153.2 J/K/mol
179.94 K, Crystal, Vacuum adiabatic calorimetry	153.35 J/K/mol
179.96 K, Glass, Small (less than 1 g) adiabatic calorimetry	160.43 J/K/mol
180.51 K, Glass, Small (less than 1 g) adiabatic calorimetry	160.72 J/K/mol
180.91 K, Crystal, Vacuum adiabatic calorimetry	153.97 J/K/mol
181.24 K, Metastable crystal, Small (less than 1 g) adiabatic calorimetry	158.54 J/K/mol
182.01 K, Crystal, Vacuum adiabatic calorimetry	154.36 J/K/mol
182.28 K, Crystal, Vacuum adiabatic calorimetry	154.57 J/K/mol
182.76 K, Glass, Small (less than 1 g) adiabatic calorimetry	162.21 J/K/mol
182.96 K, Glass, Small (less than 1 g) adiabatic calorimetry	162.2 J/K/mol
183.71 K, Metastable crystal, Small (less than 1 g) adiabatic calorimetry	159.86 J/K/mol
184.08 K, Crystal, Vacuum adiabatic calorimetry	155.44 J/K/mol
184.32 K, Crystal, Vacuum adiabatic calorimetry	155.34 J/K/mol
185.31 K, Crystal, Vacuum adiabatic calorimetry	156.02 J/K/mol
185.4 K, Glass, Small (less than 1 g) adiabatic calorimetry	163.81 J/K/mol
185.55 K, Glass, Small (less than 1 g) adiabatic calorimetry	163.97 J/K/mol
186.15 K, Crystal, Vacuum adiabatic calorimetry	156.46 J/K/mol
186.18 K, Metastable crystal, Small (less than 1 g) adiabatic calorimetry	161.18 J/K/mol
186.86 K, Crystal, Vacuum adiabatic calorimetry	156.54 J/K/mol
187 K, Crystal, Vacuum adiabatic calorimetry	156.84 J/K/mol
187.85 K, Glass, Small (less than 1 g) adiabatic calorimetry	165.5 J/K/mol
188.22 K, Crystal, Vacuum adiabatic calorimetry	157.39 J/K/mol
188.33 K, Glass, Small (less than 1 g) adiabatic calorimetry	165.89 J/K/mol
188.37 K, Crystal, Vacuum adiabatic calorimetry	157.44 J/K/mol
188.65 K, Metastable crystal, Small (less than 1 g) adiabatic calorimetry	162.48 J/K/mol
189.74 K, Crystal, Vacuum adiabatic calorimetry	158.15 J/K/mol and 158.27 J/K/mol
190.29 K, Crystal, Vacuum adiabatic calorimetry	158.43 J/K/mol
190.29 K, Glass, Small (less than 1 g) adiabatic calorimetry	167.25 J/K/mol
190.58 K, Crystal, Vacuum adiabatic calorimetry	158.53 J/K/mol
191.11 K, Crystal, Vacuum adiabatic calorimetry	158.93 J/K/mol
191.12 K, Glass, Small (less than 1 g) adiabatic calorimetry	167.98 J/K/mol
191.12 K, Metastable crystal, Small (less than 1 g) adiabatic calorimetry	163.72 J/K/mol
192.28 K, Crystal, Vacuum adiabatic calorimetry	159.62 J/K/mol
192.36 K, Crystal, Vacuum adiabatic calorimetry	159.59 J/K/mol
192.48 K, Crystal, Vacuum adiabatic calorimetry	159.63 J/K/mol
192.74 K, Glass, Small (less than 1 g) adiabatic calorimetry	168.95 J/K/mol
193.11 K, Crystal, Vacuum adiabatic calorimetry	160.08 J/K/mol
193.58 K, Metastable crystal, Small (less than 1 g) adiabatic calorimetry	165.05 J/K/mol
193.85 K, Crystal, Vacuum adiabatic calorimetry	160.55 J/K/mol
193.9 K, Glass, Small (less than 1 g) adiabatic calorimetry	169.91 J/K/mol
194.35 K, Crystal, Vacuum adiabatic calorimetry	160.92 J/K/mol
195.18 K, Crystal, Vacuum adiabatic calorimetry	161.48 J/K/mol
195.19 K, Glass, Small (less than 1 g) adiabatic calorimetry	171.15 J/K/mol
195.22 K, Crystal, Vacuum adiabatic calorimetry	161.53 J/K/mol
196.05 K, Metastable crystal, Small (less than 1 g) adiabatic calorimetry	166.26 J/K/mol
196.59 K, Crystal, Vacuum adiabatic calorimetry	162.52 J/K/mol
196.68 K, Glass, Small (less than 1 g) adiabatic calorimetry	172.49 J/K/mol
197.24 K, Crystal, Vacuum adiabatic calorimetry	163.14 J/K/mol
197.62 K, Glass, Small (less than 1 g) adiabatic calorimetry	173.39 J/K/mol
197.95 K, Crystal, Vacuum adiabatic calorimetry	163.6 J/K/mol
198.51 K, Crystal, Vacuum adiabatic calorimetry	164.2 J/K/mol
198.51 K, Metastable crystal, Small (less than 1 g) adiabatic calorimetry	167.53 J/K/mol
199.3 K, Crystal, Vacuum adiabatic calorimetry	164.84 J/K/mol
